Results taken from patent US20120129872A1, “FUSED HETEROARYL INHIBITORS OF PRO-MATRIX METALLOPROTEINASE ACTIVATION” (priority 2010, published 2012).

Assays:
SCW-induced arthritis = assay: Efficacy in rats with SCW-induced arthritis (ankle thickness, clinical scores); assay type: in vivo, rat; conditions: 5, 20, 50 mg/kg BID
Text: A polyarthritis can be induced in female Lewis rats following i.p. administration of streptococcal cell wall (SCW) […] (PG-PS) (J Exp Med 1977; 146:1585-1602). The model has an acute phase (days 3-7) that is complement and neutrophil-dependent and that resolves. A chronic erosive phase begins at about day ten and is dependent on the development of specific T cell immunity to the PG-GS, which resists digestion and remains present in synovial macrophages for months. Like rheumatoid arthritis, SCW-induced arthritis is reduced by TNF inhibitors, and the dependence of SCW-induced arthritis on macrophages (Rheumatology; 2001; 40:978-987) and the strong association of rheumatoid arthritis severity with synovial-tissue macrophage counts (Ann Rheum Dis; 2005; 64:834-838) makes SCW-arthritis an attractive model for testing potential therapeutic agents. SCW PG-PS 10S (Beckton Dickinson Cat#210866) suspended in saline was vortexed for 30 seconds and sonicated for 3 min with a probe type sonicator prior to injection. […]
To induce arthritis, Female Lewis (LEW/N) rats, 5-6 weeks of age (80-100 g) were injected (i.p.) with SCW PG-PS as described above. […] Each ankle was measured 3 times and averaged, and treatment groups were randomized based on ankle thickness (Table 6). […]

MMP9 = target: T1, MMP9 (Rattus norvegicus, UniProt P50282); assay: Pro and active MMP9 in ankles of rats with SCW-induced arthritis (Western blot); assay type: in vivo
T1 construct: endogenous in cells; host or cells: primary synoviocytes from arthritic female Lewis rats
Protocol: Hind-limbs were skinned, severed just above the tibia-tarsus joint and below the metatarsals, and the tibia-tarsus joints (ankles) were weighed, snap frozen and pulverized on dry ice using a hammer and anvil. The pulverized tissue was suspended in 3 volumes (w:v) of ice-cold homogenization buffer containing 50 mM Tris pH 7.5, 150 mM NaCl, 5 mM EDTA, 1% Triton X100, 0.05% Brij 30, 10% dimethylsulfoxide and Complete EDTA-free Protease Inhibitor Cocktail (Roche Diagnostics). The suspended tissue was homogenized sequentially with a Kinematica AG Polytron and a Dounce homogenizer. Homogenates were centrifuged at 16,000×g for 10 min at 4° C. and the soluble fractions were saved. Dimethylsulfoxide was removed from a portion of each soluble fraction using PD MiniTrap™ G-25 desalting columns (GE Healthcare). Homogenates (0.25 mL), free of DMSO, were diluted with an equal volume of binding buffer (i.e., homogenization buffer without dimethylsufoxide) and adjusted to contain 50 μL of a 50% slurry of gelatin-conjugated sepharose. Following 2 hours of rotation at 4° C. the beads were washed twice in binding buffer and eluted in 100 μL 2×-reducing Laemmli buffer with heating to 95° C. for 5 minutes. […]

T1 sequence (P50282 108-708): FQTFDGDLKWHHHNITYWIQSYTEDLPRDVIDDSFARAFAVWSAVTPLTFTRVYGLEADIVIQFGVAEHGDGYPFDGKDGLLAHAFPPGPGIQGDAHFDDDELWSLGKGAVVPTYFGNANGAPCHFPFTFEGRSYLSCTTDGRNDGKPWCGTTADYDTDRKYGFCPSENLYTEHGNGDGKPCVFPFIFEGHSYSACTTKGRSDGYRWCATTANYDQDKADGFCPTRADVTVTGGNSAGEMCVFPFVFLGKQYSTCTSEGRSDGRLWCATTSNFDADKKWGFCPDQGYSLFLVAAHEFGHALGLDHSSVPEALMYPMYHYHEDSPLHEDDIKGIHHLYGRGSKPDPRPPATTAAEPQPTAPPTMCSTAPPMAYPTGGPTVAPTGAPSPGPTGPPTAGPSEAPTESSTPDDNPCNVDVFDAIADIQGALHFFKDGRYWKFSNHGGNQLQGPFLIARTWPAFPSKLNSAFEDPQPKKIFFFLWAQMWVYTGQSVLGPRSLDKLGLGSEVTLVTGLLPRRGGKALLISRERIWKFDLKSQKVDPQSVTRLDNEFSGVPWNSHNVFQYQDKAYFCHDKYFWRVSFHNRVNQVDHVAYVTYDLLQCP

Compound: Cc1nc(C)c(-c2csc(Nc3cc(S(N)(=O)=O)ccc3OC(C)C)n2)s1 [Compound-α, 3-(2′,4′-Dimethyl-[4,5′]bithiazolyl-2-ylamino)-4-isopropoxy-benzenesulfonamide•HBr]
- Effect on ankle thickness measurements (SCW-induced arthritis; Day 18-26): dose-dependent decrease in ankle thickness measurements
- Effect on clinical score measurements (SCW-induced arthritis; significant effects emerging at 20 mg/kg): dose dependent decrease in clinical score measurements
- Abundance of proMMP9 in ankles (MMP9; Day 26, FIG. 3A lanes 4-9): did not reduce the abundance of proMMP9
- Abundance of proMMP9 in ankles (MMP9; Day 26, FIG. 3A lanes 4-9, listed as Compound a): did not reduce the abundance of proMMP-9
